Measurements from PubChem BioAssay AID1918957 (Molecular Pharmacology Branch, DTP, NCI, 2023).
Values joined by “and” are separate entries in the source; they are usually repeats but may differ in a detail not shown here. Equal entries are not always repeated.

System: NCI-H1876 complex spheroid viability
Test: Anticancer human tumor NCI-H1876 cell line growth inhibition [LSD1];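 also: spheroids exposed to compounds for one week before readout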;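 as to viability, T/C: 100% = DMSO vehicle-treated spheroids so lower means fewer viable cells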
Conditions: for viability, T/C: stronger effect = lower value
Method in brief: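 Complex spheroids of tumor cells with HUVEC and human MSCs, exposed to iadademstat combined with other agents. Each agent tested in half-log steps from near clinical Cmax (else 10 microM top), DMSO ≤0.25%.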

[1] = curve of first compound, second compound 0.1 µM
[2] = curve of first compound, second compound 0.316 µM
[3] = curve of first compound, second compound 1 µM
[4] = curve of first compound, second compound 3.16 µM
[5] = curve of first compound, second compound 10 µM
[6] = second compound 0.1 µM, first compound 0.00949 µM
[7] = second compound 0.1 µM, first compound 0.03 µM
[8] = second compound 0.1 µM, first compound 0.0949 µM
[9] = second compound 0.1 µM, first compound 0.3 µM
[10] = second compound 0.316 µM, first compound 0.00949 µM
[11] = second compound 0.316 µM, first compound 0.03 µM
[12] = second compound 0.316 µM, first compound 0.0949 µM
[13] = second compound 0.316 µM, first compound 0.3 µM
[14] = second compound 1 µM, first compound 0.00949 µM
[15] = second compound 1 µM, first compound 0.03 µM
[16] = second compound 1 µM, first compound 0.0949 µM
[17] = second compound 1 µM, first compound 0.3 µM
[18] = second compound 3.16 µM, first compound 0.00949 µM
[19] = second compound 3.16 µM, first compound 0.03 µM
[20] = second compound 3.16 µM, first compound 0.0949 µM
[21] = second compound 3.16 µM, first compound 0.3 µM
[22] = second compound 10 µM, first compound 0.00949 µM
[23] = second compound 10 µM, first compound 0.03 µM
[24] = second compound 10 µM, first compound 0.0949 µM
[25] = second compound 10 µM, first compound 0.3 µM

With `NC1CCC(NC2CC2c2ccccc2)CC1` (configuration not stated) the viability, T/C (compound 0.316 µM) was 98.5% and 109%, the viability, T/C (compound 1 µM) was 102% [middle of 25 runs] and the viability, T/C (compound 3.16 µM) was 102% [middle of 25 runs]. The viability, T/C (compound 10 µM) was 103% [middle of 23 runs] and the IC50 (compound alone, run of 02/15/2022) was > 10 µM.

For `Nc1ncn(C2CC(O)C(CO)O2)c(=O)n1` (configuration not stated), the viability, T/C (compound 0.00316 µM) was 97.2% and 101%, the viability, T/C (compound 0.01 µM) was 96.9% and 105% and the viability, T/C (compound 0.0316 µM) was 102% and 103%. The viability, T/C (compound 0.1 µM) was 97.4% and 97%, the viability, T/C (compound 0.316 µM) was 86.7% and 106% and the viability, T/C (compound 1 µM) was 86% and 83.6%. The IC50 (curve of compound) was > 1 µM.

`CCc1c2c(nc3ccc(O)cc13)-c1cc3c(c(=O)n1C2)COC(=O)[C@]3(O)CC` + NC1CCC(NC2CC2c2ccccc2)CC1 was tested, and the IC50 [1] was < 0.000949 µM, the IC50 [2] was < 0.000949 µM and the IC50 [3] was < 0.000949 µM. The IC50 [4] was < 0.000949 µM, the IC50 [5] was < 0.000949 µM and the viability, T/C (second compound 0.1 µM, first compound 0.000949 µM) was 8.41%. For the same compound, the viability, T/C (second compound 0.1 µM, first compound 0.003 µM) was 6.69%, the viability, T/C [6] was 4.51% and the viability, T/C [7] was 17%. For the same compound, the viability, T/C [8] was 0.42%, the viability, T/C [9] was 0.51% and the viability, T/C (second compound 0.316 µM, first compound 0.000949 µM) was 9.1%. For the same compound, the viability, T/C (second compound 0.316 µM, first compound 0.003 µM) was 7.39%, the viability, T/C [10] was 26.4% and the viability, T/C [11] was 34.6%. For the same compound, the viability, T/C [12] was 0.46%, the viability, T/C [13] was 0.47% and the viability, T/C (second compound 1 µM, first compound 0.000949 µM) was 9.13%. It also gave a viability, T/C (second compound 1 µM, first compound 0.003 µM) of 7.08%, a viability, T/C [14] of 3.54% and a viability, T/C [15] of 16.9%. It also gave a viability, T/C [16] of 0.38%, a viability, T/C [17] of 0.41% and a viability, T/C (second compound 3.16 µM, first compound 0.000949 µM) of 7.88%. It also gave a viability, T/C (second compound 3.16 µM, first compound 0.003 µM) of 7%, a viability, T/C [18] of 4.05% and a viability, T/C [19] of 8.64%. The viability, T/C [20] was 0.31%, the viability, T/C [21] was 0.45% and the viability, T/C (second compound 10 µM, first compound 0.000949 µM) was 9.76%. For the same compound, the viability, T/C (second compound 10 µM, first compound 0.003 µM) was 7.48%, the viability, T/C [22] was 31.4% and the viability, T/C [23] was 8.78%. For the same compound, the viability, T/C [24] was 15.6% and the viability, T/C [25] was 0.65%.

For `CCN(c1cc(-c2ccc(CN3CCOCC3)cc2)cc(C(=O)NCc2c(C)cc(C)[nH]c2=O)c1C)C1CCOCC1` + NC1CCC(NC2CC2c2ccccc2)CC1, the IC50 [1] was > 3 µM, the IC50 [2] was > 3 µM and the IC50 [3] was > 3 µM. For the same compound, the IC50 [4] was > 3 µM, the IC50 [5] was > 3 µM and the viability, T/C [6] was 108%. It also gave a viability, T/C [7] of 103%, a viability, T/C [8] of 104% and a viability, T/C [9] of 93.8%. It also gave a viability, T/C (second compound 0.1 µM, first compound 0.949 µM) of 85.3%, a viability, T/C (second compound 0.1 µM, first compound 3 µM) of 64% and a viability, T/C [10] of 110%. It also gave a viability, T/C [11] of 117%, a viability, T/C [12] of 102% and a viability, T/C [13] of 93.3%. The viability, T/C (second compound 0.316 µM, first compound 0.949 µM) was 87.1%, the viability, T/C (second compound 0.316 µM, first compound 3 µM) was 65.8% and the viability, T/C [14] was 104%. For the same compound, the viability, T/C [15] was 111%, the viability, T/C [16] was 102% and the viability, T/C [17] was 91.3%. The viability, T/C (second compound 1 µM, first compound 0.949 µM) was 84.9%, the viability, T/C (second compound 1 µM, first compound 3 µM) was 54.4% and the viability, T/C [18] was 99.8%. The viability, T/C [19] was 109%, the viability, T/C [20] was 106% and the viability, T/C [21] was 108%. It also gave a viability, T/C (second compound 3.16 µM, first compound 0.949 µM) of 86.3%, a viability, T/C (second compound 3.16 µM, first compound 3 µM) of 56.3% and a viability, T/C [22] of 115%. For the same compound, the viability, T/C [23] was 106%, the viability, T/C [24] was 97.4% and the viability, T/C [25] was 97.6%. For the same compound, the viability, T/C (second compound 10 µM, first compound 0.949 µM) was 79% and the viability, T/C (second compound 10 µM, first compound 3 µM) was 56.8%.
